Measured values: US11702428B2, “Chemical compounds as inhibitors of interleukin-1 activity” (Genentech, Inc., priority 2017, dated 2023)
Read-outs that look alike come from different tables or passages of the source.

Experiments:
[1] = test system: LPS and nigericin stimulated cells; assay: cells; format: cell-based; details: Homo sapiens, read-out: CTG protective IC50
Method: Viability of compound treated cells is measured using CellTiter-Glo® assay (Promega, Madison, Wis.) that measures the ATP content of cells which is proportional to the number of live cells within a well. This is a counter-screen to establish that the reduction of IL-1β levels in LPS and nigericin stimulated and compound treated cells is not due to cytotoxicity, but rather through the inhibition of the inflammasome pathway. Compounds inhibiting NRLP3 inflammasome activation ultimately increase the viability of LPS and nigericin stimulated cells by blocking NLRP3 mediated pyroptosis that would otherwise lead to cell lysis.

[2] = Human microsomal stability (Eh); format: in vitro ADME; details: hepatic extraction ratio; 0.5 mg/mL microsomal protein, 1 μM, NADPH; liver blood flow 20.7 mL/min/kg
Method: The stock solutions of test article and positive control were prepared at a concentration of 10 mM using DMSO as diluents. All stock solutions were then diluted to working concentrations at 0.25 mM with 70% acetonitrile. The cofactor used in this study was NADPH regenerating system, that was composed of 6.5 mM NADP, 16.5 mM G-6-P, 3 U/mL G-6-P D. The quench reagent was consisted of acetonitrile containing tolbutamide and propanolol (serve as internal standard). Incubation mixtures containing 0.5 mg/mL liver microsomal protein and […] test article/positive control in 100 mM potassium phosphate buffer.
The 0-minute samples were prepared by addition of an 80 μL aliquot of each incubation mixture to 300 μL quench reagent to precipitate proteins. The samples were vortexed, and then a 20 μL aliquot of the NADPH regenerating system was added in. The reaction was initiated by addition of 80 μL of the NADPH regenerating system to 320 μL of each incubation mixture. The final incubation conditions achieved in 400 μL are: 0.5 mg/mL microsomal protein, 1 μM test article/positive control, 1.3 mM NADP, 3.3 mM glucose 6 phosphate, 0.6 U/mL glucose 6 phosphate dehydrogenase. The mixtures were incubated in a 37° C. water bath with gentle shaking. A 100 μL aliquot of each mixture was removed at 10, 30, 90 minutes to a clean 96-well plate which contains 300 μL quench reagent to precipitate proteins, and centrifuged (4000×g, 10 min). 80 μL of supernatant are taken into 96-well assay plates pre-added with 160 μL ultrapure water, and then analyzed by LC-MS/MS. Hepatic extraction ratio (Eh) values were calculated from measured in vitro clearance assuming a human liver blood flow of 20.7 mL/min/kg. Eh values of <0.3 are indicative of compounds with favorable metabolic stability.

[3] = target: T1, NLRP3 inflammasome (Homo sapiens, UniProt Q96P20); assay: NLRP3 inflammasome activation assay in Kupffer cells (LPS priming, nigericin), IL-1β/IL-18 by ELISA; format: cell-based; details: KCs; LPS, nigericin; read-out: KC IL-1β IC50
T1 sequence (Q96P20 whole entry): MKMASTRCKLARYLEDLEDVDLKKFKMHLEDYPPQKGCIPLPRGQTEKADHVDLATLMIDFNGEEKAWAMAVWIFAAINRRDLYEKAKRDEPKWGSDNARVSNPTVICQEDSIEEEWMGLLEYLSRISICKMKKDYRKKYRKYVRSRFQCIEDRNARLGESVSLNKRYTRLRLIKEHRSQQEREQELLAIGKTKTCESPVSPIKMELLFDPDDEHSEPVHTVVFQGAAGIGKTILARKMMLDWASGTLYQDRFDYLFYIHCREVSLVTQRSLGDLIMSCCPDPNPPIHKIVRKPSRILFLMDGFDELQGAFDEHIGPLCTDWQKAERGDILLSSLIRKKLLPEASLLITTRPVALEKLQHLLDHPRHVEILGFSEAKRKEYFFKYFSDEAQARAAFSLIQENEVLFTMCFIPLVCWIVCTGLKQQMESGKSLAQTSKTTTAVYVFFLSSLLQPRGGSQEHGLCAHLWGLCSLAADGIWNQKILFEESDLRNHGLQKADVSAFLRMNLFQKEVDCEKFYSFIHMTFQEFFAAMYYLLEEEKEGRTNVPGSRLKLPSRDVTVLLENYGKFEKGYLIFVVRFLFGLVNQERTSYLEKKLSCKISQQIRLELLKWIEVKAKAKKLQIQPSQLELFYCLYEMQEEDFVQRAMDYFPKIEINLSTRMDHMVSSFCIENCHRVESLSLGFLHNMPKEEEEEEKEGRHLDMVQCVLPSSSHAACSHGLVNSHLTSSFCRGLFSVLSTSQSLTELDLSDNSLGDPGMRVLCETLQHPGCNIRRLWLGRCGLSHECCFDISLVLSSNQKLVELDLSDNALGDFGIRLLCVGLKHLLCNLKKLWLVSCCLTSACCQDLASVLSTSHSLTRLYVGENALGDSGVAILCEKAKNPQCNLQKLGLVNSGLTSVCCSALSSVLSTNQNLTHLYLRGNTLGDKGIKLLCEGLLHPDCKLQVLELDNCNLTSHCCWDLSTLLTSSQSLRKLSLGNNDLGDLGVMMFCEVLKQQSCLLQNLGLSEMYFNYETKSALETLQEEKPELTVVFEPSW
Source text: (§1) Some of the following assays were used to determine the inhibitory activity of the compounds on the NLRP3 inflammasome using a common inflammasome activation stimuli-nigericin.
Human Kupffer cells (KCs), specialized liver macrophages residing in […], were obtained by gradient isolation from liver specimens harvested post-mortem by Samsara Sciences. Cells were obtained through an IRB approved donor program by Samsara Sciences and all donors tested negative for bacterial and viral infections.
(§2) Cells were then stimulated with 10 uM Nigericin (Sigma Aldrich; InvivoGen) for 1.5 h. Plates were centrifuged at 1,500 rpm for 3 minutes to pellet cells and supernatant was transferred into new plates for subsequent experiments.
(§3) For ELISA assays cells were seeded into 96-well plates. Post study, supernatants were removed and the levels of mature IL-1β, IL-18 and TNFα (Quantikine ELISA, R&D systems) were measured in cell conditioned media by ELISA according to manufacturer's instructions.

[4] = target: T1, NLRP3 inflammasome; assay: NLRP3 inflammasome activation assay in PBMCs (LPS priming, nigericin), IL-1β by ELISA; format: cell-based; design: Human peripheral blood mononuclear cells (PBMCs); host or cells: primary human PBMCs from healthy donors; details: LPS, nigericin, read-out: PBMC IL-1β IC50
Method: as §1
Human peripheral blood mononuclear cells (PBMCs), consisting of lymphocytes (T, B and NK cells), monocytes and dendritic cells, were freshly isolated from human peripheral blood from healthy donors. Cells were obtained through an IRB approved donor program by iXCells Biotechnologies where all the donors were tested for bacterial and viral infections. Cells were purified from peripheral blood using ficoll gradient centrifugation.
as §2, §3

[5] = test system: TNFα; assay: TNFα levels of LPS and nigericin stimulated cells (counter-screen); format: cell-based, human
Method: as §3
TNFα levels of LPS and nigericin stimulated cells is measured by HTRF assay (Cisbio, Bedford, Mass.). […] Measuring TNFalpha production also serves as a technical counter-screen to eliminate compounds that interfere with the HTRF reagents. Thus compounds that inhibit both IL-1β and TNFα levels are triaged for either being non-selective for inflammasome or interfering with the HTRF readout.

[6] = LPS and nigericin stimulated cells, CellTiter-Glo

For CN(C)C1COc2c(S(=O)(=O)NC(=O)Nc3c4c(cc5c3CCC5)CCC4)cnn2C1 (stereo not drawn), the IC50 [1] was < 100 nM and the “Human Microsomal Stability (Eh)” value [2] was 0.2.
In the case of CC1COc2c(S(=O)(=O)NC(=O)Nc3c4c(cc5c3CCC5)CCC4)cnn2C1 (stereo not drawn), the IC50 [3] is reported as < 100 nM, the IC50 [1, 6] is reported as < 100 nM and the “Human Microsomal Stability (Eh)” value [2] is reported as 0.4. The IC50 [4] was < 100 nM.
For O=C(Nc1c2c(cc3c1CCC3)CCC2)NS(=O)(=O)c1cnn2c1NCCC2, the IC50 [3] was < 100 nM, the IC50 [1, 6] was < 100 nM and the “Human Microsomal Stability (Eh)” value [2] was 0.2. The IC50 [4] was < 100 nM.
In the case of Cc1c2c(c(NC(=O)NS(=O)(=O)c3cnn4c3OCCC4)c3c1CCC3)CCC2, the IC50 [1, 6] is reported as 100 to 1000 nM, the “TNFα IC50 (PBMC or KC)” value [5] is reported as “No Curve” and the IC50 [4] is reported as 100 to 1000 nM.
For O=C(Nc1c2c(cc3c1CCC3)CCC2)NS(=O)(=O)c1cc2n(n1)CCOC2, the IC50 [1, 6] was 100 to 1000 nM, the “TNFα IC50 (PBMC or KC)” value [5] was “No Curve” and the IC50 [4] was 100 to 1000 nM.
For CC(C)OC1COc2c(S(=O)(=O)NC(=O)Nc3c4c(cc5c3CCC5)CCC4)cnn2C1 (stereo not drawn), the IC50 [1, 6] was < 100 nM and the IC50 [4] was 100 to 1000 nM.
For C[C@@H]1COc2c(S(=O)(=O)NC(=O)Nc3c4c(cc5c3CCC5)CCC4)cnn2C1, the IC50 [1, 6] was < 100 nM and the IC50 [4] was < 100 nM.
For O=C(Nc1c2c(cc3c1CCC3)CCC2)NS(=O)(=O)c1cc2n(n1)CCNC2, the IC50 [1, 6] was < 100 nM and the IC50 [4] was 100 to 1000 nM.
In the case of COCC1COc2c(S(=O)(=O)NC(=O)Nc3c4c(cc5c3CCC5)CCC4)cnn2C1 (stereo not drawn), the IC50 [1, 6] is reported as < 100 nM and the IC50 [4] is reported as 100 to 1000 nM.
In the case of CN1CCn2nc(S(=O)(=O)NC(=O)Nc3c4c(cc5c3CCC5)CCC4)cc2C1, the IC50 [1, 6] is reported as 100 to 1000 nM and the IC50 [4] is reported as 1000 to 10000 nM.
O=C(Nc1c2c(cc3c1CCC3)CCC2)NS(=O)(=O)c1ncn2c1OCCC2 gave an IC50 [1, 6] of 100 to 1000 nM and an IC50 [4] of 100 to 1000 nM.
In the case of O=C(Nc1c2c(cc3c1CCC3)CCC2)NS(=O)(=O)c1cnn2c1OCC(N1CCCC1)C2 (stereo not drawn), the IC50 [1, 6] is reported as < 100 nM, the “Human Microsomal Stability (Eh)” value [2] is reported as 0.6 and the IC50 [4] is reported as < 100 nM.
For CCN[C@H]1COc2c(S(=O)(=O)NC(=O)Nc3c4c(cc5c3CCC5)CCC4)cnn2C1, the IC50 [1, 6] was < 100 nM, the “Human Microsomal Stability (Eh)” value [2] was 0.2 and the IC50 [4] was < 100 nM.
CCO[C@@H]1COc2c(S(=O)(=O)NC(=O)Nc3c4c(cc5c3CCC5)CCC4)cnn2C1 showed an IC50 [1, 6] of 100 to 1000 nM and an IC50 [4] of 100 to 1000 nM.
